Measurements: patent publication US20110117026A1, “METHODS AND COMPOSITIONS FOR THE DELIVERY OF BIOACTIVE COMPOUNDS” (priority 2008, published 2011)
Values belong to the compound of their own block, whether it stands above or below them. Non-standard residues stand in square brackets, D forms with d. Residues, ends and D or L forms follow the SMILES beside them. No end group written: not given here. pY = N[C@@H](Cc1ccc(OP(=O)(O)O)cc1)C(=O)O

How the values were obtained:
[1] = molecular target: T1, STAT5b phosphorylation by EGFR (Homo sapiens, UniProt P51692); assay: Cell-free inhibition of STAT5b phosphorylation in H460 cell lysate (Western blot); type: biochemical
T1 construct: In a cell-free system containing the lysate of H460 cells treated with EGF; endogenous in cells; host or cells: H460 cell lysate (cells treated with EGF)
T1 sequence (P51692 1-787): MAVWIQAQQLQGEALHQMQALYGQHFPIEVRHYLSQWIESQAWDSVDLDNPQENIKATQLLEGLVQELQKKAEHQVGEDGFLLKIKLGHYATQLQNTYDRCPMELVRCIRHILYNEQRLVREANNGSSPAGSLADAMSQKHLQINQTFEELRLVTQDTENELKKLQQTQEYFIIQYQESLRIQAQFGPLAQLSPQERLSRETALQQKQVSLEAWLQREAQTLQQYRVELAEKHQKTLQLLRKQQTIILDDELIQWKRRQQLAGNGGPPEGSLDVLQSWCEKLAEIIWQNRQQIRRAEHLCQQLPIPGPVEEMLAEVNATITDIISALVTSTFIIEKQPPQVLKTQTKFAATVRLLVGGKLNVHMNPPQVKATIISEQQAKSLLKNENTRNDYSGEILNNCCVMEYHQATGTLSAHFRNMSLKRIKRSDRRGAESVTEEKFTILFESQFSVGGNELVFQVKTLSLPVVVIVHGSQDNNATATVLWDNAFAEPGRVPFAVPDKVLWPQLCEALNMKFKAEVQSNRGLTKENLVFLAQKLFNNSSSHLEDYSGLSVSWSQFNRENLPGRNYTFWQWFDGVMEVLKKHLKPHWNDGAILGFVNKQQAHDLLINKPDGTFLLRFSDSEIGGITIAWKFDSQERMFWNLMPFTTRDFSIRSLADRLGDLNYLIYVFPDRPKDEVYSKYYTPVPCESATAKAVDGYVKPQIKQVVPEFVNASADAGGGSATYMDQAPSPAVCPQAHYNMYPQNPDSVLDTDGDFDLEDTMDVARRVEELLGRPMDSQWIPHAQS
Description: FIGS. 20A and 20B show the inhibition of STAT5b phosphorylation by the EV peptide (SEQ ID NO: 3) in a tumor cell lysate. Increasing amounts of EV peptide was added to the assay mixture containing H460 cell lysate. The degree of STAT5b phosphorylation was detected by Western blot (FIG. 20A) using a phosphorylated STAT5b specific monoclonal antibody. The data was analyzed by Image J software to obtain the IC50 (FIG. 20B).
Studies were initiated by selecting a highly anionic peptide that can block an important intracellular signaling event. The phosphorylation and activation of the signal transducer and activator of transcription 5b (STAT5b) by the epidermal growth factor receptor (EGFR) tyrosine kinase was chosen as the targeted signaling event. STAT proteins are cytoplasmic proteins that function as secondary messengers and transcription factors. The STAT proteins have a phosphotyrosine binding domain of src-homology 2 (SH2). The potential of the SH2 domain to interact with a number of signaling proteins allow the STATs to interfere with multiple cell signaling pathways (Mohamad and Mohammad (2006) JK-Practitioner 13(4):215-221). STAT activation has been implicated in human cancer cells, including the activation of upstream receptor tyrosine kinases, such as the EGFR, as well as nonreceptor kinases. […]

H460 cells [2] = assay: Apoptosis of H460 cells by flow cytometry (annexin V, propidium iodide); type: cell-based, human; conditions: 48 hours after treatment
Description: Cells were stained with propidium iodide (PI) and Annexin V-FITC at 48 hours after treatment with a PEGylated LPH with AA or without AA.
(§1) The effect of the delivered EV peptide on the growth of H460 cells was then investigated.

H460 cells [3] = assay: Uptake of Alexa488 EV peptide by H460 cells; type: cell-based, human; conditions: Alexa488-labeled EV peptide, 4 h
Description: After treating H460 cells for four hours with an Alexa488 conjugated EV peptide formulated in LPH, PEG-LPH, or PEG-AA-LPH, cells were washed, treated with Triton X-100, and the fluorescence of the cell extract was determined with a fluorometer.
The uptake of the peptide by H460 cells was first studied in vitro. The EV peptide was fluorescently labeled with Alexa488 at the N-terminal α-NH2 group, purified by gel filtration, and formulated in the nanoparticles. […] Free EV peptide was not taken up by H460 cells at all.

H460 cells [4] = assay: Inhibition of H460 cell growth; type: cell-based, human; conditions: EV peptide 5 μM
Description: H460 cells were treated with the EV peptide (5 μM) formulated in LPH-PEG-AA, LPH-PEG, or as a free peptide.
as §1

recombinant caspase 3 = molecular target: T2, recombinant caspase 3 (Homo sapiens, UniProt P42574); assay: Cleavage of imaging peptide by caspase 3 (Cy5.5/Cy7 FRET, nanofluorometer); type: biochemical
T2 sequence (P42574 29-175 limits assumed): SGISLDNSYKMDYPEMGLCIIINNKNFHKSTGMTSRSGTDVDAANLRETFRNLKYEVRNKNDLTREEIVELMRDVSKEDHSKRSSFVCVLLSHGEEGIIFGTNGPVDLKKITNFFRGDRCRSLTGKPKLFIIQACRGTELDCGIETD
T2 sequence (P42574 176-277 limits assumed): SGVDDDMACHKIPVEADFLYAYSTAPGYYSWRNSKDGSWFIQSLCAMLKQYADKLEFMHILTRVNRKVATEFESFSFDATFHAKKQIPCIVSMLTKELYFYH
Description: The fluorescence emission profiles of untreated peptide (FIG. 27A), peptide treated with 60 units of caspase-3 for 2 hours (FIG. 27B), peptide treated with 0.1 mg BSA (FIG. 27C), and peptide treated with 60 units caspase-3 that was pre-incubated with 10 μM caspase-3 inhibitor for one hour (FIG. 27D) were measured with a nanofluorometer.
The fluorescence spectrum of the peptide was recorded with a nanofluorometer which only requires a 2 μL sample volume.

STAT5b = molecular target: T3, STAT5b (Homo sapiens, UniProt P51692); assay: STAT5b phosphorylation in intact H460 cells (ELISA); type: cell-based; conditions: 3.4 μM peptide, 24 h
T3 construct: endogenous in cells; host or cells: H460 cells
T3 sequence (P51692 1-787): T1 sequence (P51692 1-787)
Description: FIG. 22 provides a graph depicting the inhibition of STAT5b phosphorylation by the EV peptide. At 24 hours after treating H460 cells with LPH, LPH-PEG or LPH-PEG-AA comprising the EV (SEQ ID NO: 3) or EE (SEQ ID NO: 4) peptide or the free peptide at 3.4 μM, the reduction of phosphorylated Stat5b was assayed with an ELISA.
Next, the pharmacodynamics of the EV peptide was studied in vitro.

Compound: CC(C)C[C@H](NC(=O)[C@H](CCC(=O)O)NC(=O)[C@H](Cc1ccccc1)NC(=O)[C@H](Cc1ccc(OP(=O)(O)O)cc1)NC(=O)[C@H](CCC(=O)O)NC(=O)[C@H](CCC(=O)O)NC(=O)[C@H](CCC(=O)O)NC(=O)[C@@H](N)CCC(=O)O)C(=O)N[C@H](C(=O)O)C(C)C [EV peptide, EEEE(pY)FELV] (H-EEEE[pY]FELV-OH; C-terminus assumed)
- IC50 [1]: 2.5 µM
- apoptosis, in words (H460 cells [2]): without any effect
- uptake by H460 cells (H460 cells [3]): not taken up
- effect on growth of H460 cells (H460 cells [4]): no effect

- ratio of Cy5.5/Cy7 (recombinant caspase 3; after incubation with recombinant caspase 3 (60 units, 2 hours)): 2.70
- ratio of Cy5.5/Cy7 (recombinant caspase 3; intact (untreated) peptide): 1.74
Compound: Ac-KDEVDCDEVDKDEVDC (also: Cy5.5 on Cys, Cy7 on Lys) [imaging peptide, caspase 3 FRET reporter]

- effect on STAT5b phosphorylation, in words (STAT5b): did not show any significant effect
Compound: E(pY)ELFEEVE (E[pY]ELFEEVE) [EE peptide, reference compound]
